Assay [1] deals with Protein synthesis of S. aureus RN450. In words: microbe, parasite or virus in culture. It is filed as cell-based. The note with it: for IC50 / IC90: Staphylococcus aureus; for IC50: read-out: Protein synthesis IC50; for IC90: read-out: Protein synthesis IC90.
For the next assay, the system named is S. aureus MRSA5. The assay can be described thus: microbe, parasite or virus in culture. It is filed as cell-based. As to conditions: Staphylococcus aureus.
The test system of another assay is S. aureus RN450. The assay can be described thus: microbe, parasite or virus in culture. The assay is classed as cell-based. The note with it: Staphylococcus aureus.
For another assay, the system named is E. faecalis 29212. In words: microbe, parasite or virus in culture. The assay is classed as cell-based. As to conditions: Enterococcus faecalis.
The subject of assay [2] is Peptidoglycan synthesis of S. aureus RN450. The assay can be described thus: microbe, parasite or virus in culture. The assay is classed as cell-based. The note with it: for IC50 / IC90: Staphylococcus aureus; for IC50: read-out: Peptidoglycan synthesis IC50; for IC90: read-out: Peptidoglycan synthesis IC90.
Assay [3] relates to S. pneumoniae 700905. The assay can be described thus: microbe, parasite or virus in culture. The note with it: Streptococcus pneumoniae. It is filed as cell-based.
The test system of the next assay is E. faecium 494. The assay can be described thus: microbe, parasite or virus in culture. It is filed as cell-based. The note with it: Enterococcus faecium.
A further assay relates to S. aureus RN4250. The assay can be described thus: microbe, parasite or virus in culture. The assay is classed as cell-based. The note with it: Staphylococcus aureus, RN4250.
The subject of assay [4] is S. pneumoniae 157E. Further details: species or system mice. The note with it: mouse, in vivo.
The test system of assay [5] is S. pneumoniae 700905. Set-up: species or system mice. The note with it: mouse, in vivo.
The subject of assay [6] is S. pneumoniae 157E. The assay can be described thus: animal or person. It is filed as in vivo, mice. The note with it: Streptococcus pneumoniae, 157E, in Mus musculus, 48 h, read-out: % survival; for responders at 5 mg/kg: sc.
Assay [7] concerns S. pneumoniae 157E. In words: microbe, parasite or virus in culture. It is filed as cell-based. As to conditions: Streptococcus pneumoniae.

The source of these data is patent publication US8440646B1 (priority 2006, dated 2013).

Values after ≈ are worked out from the molar mass of the structure shown. Like-named read-outs stand apart in the source and are kept apart here. Some results are limits rather than exact numbers.

What is called IC50 is the concentration that inhibits the measured activity by half. The term IC90 denotes the point of the concentration-response curve where the effect stands at 90%. As to `CO/N=C/c1cc(-c2ccc(O)c3c2C[C@H]2C[C@H]4[C@H](N(C)C)C(O)=C(C(N)=O)C(=O)[C@@]4(O)C(O)=C2C3=O)ccc1OC` [A], the IC50 in assay [1] came to 1.9 µg/mL (≈ 3.29 µM); in assay [2] it was 2.1 µg/mL (≈ 3.64 µM). Moreover, the IC90 in assay [1] was 5 µg/mL (≈ 8.66 µM); in assay [2], 3.8 µg/mL (≈ 6.58 µM). Also, the MIC in the assay on S. aureus MRSA5 came out at 1 µg/mL (≈ 1.73 µM); against S. aureus RN450 it was 0.25 µg/mL (≈ 0.433 µM); against E. faecalis 29212, 1 µg/mL (≈ 1.73 µM); with S. pneumoniae 700905 [3], 0.25 µg/mL (≈ 0.433 µM); against E. faecium 494 it was 1 µg/mL (≈ 1.73 µM). For the same compound, the “effect on peptidoglycan biosynthesis in words” value in [2] was “affect peptidoglycan biosynthesis”.
For the compound `CC(C)N(C)Cc1ccc(-c2ccc(O)c3c2C[C@H]2C[C@H]4[C@H](N(C)C)C(O)=C(C(N)=O)C(=O)[C@@]4(O)C(O)=C2C3=O)o1` [Q], the MIC in the assay with S. aureus RN450 and against S. aureus RN4250 was 0.06 µg/mL (≈ 0.106 µM) in each case.
Turning to `CN(C)Cc1ccc(-c2ccc(O)c3c2C[C@H]2C[C@H]4[C@H](N(C)C)C(O)=C(C(N)=O)C(=O)[C@@]4(O)C(O)=C2C3=O)cc1` [Compound V], the MIC against S. aureus RN450 and against S. aureus RN4250 was 0.06 µg/mL (≈ 0.11 µM) each time.
Consider `COc1ccc(CN(C)C)c(-c2ccc(O)c3c2C[C@H]2C[C@H]4[C@H](N(C)C)C(O)=C(C(N)=O)C(=O)[C@@]4(O)C(O)=C2C3=O)c1` [X], for which the MIC against S. aureus RN450 and against S. aureus RN4250 was 0.06 µg/mL (≈ 0.104 µM) in each case.
In the case of `CN(Cc1ccccc1)Cc1cc(N(C)C)c2c(c1O)C(=O)C1=C(O)[C@]3(O)C(=O)C(C(N)=O)=C(O)[C@@H](N(C)C)[C@@H]3C[C@@H]1C2` [Compound I], the MIC with S. aureus MRSA5 came out at 1 µg/mL (≈ 1.69 µM); in the assay with E. faecalis 29212, 1 µg/mL (≈ 1.69 µM); in the assay on S. pneumoniae 700905 [3], 0.5 µg/mL (≈ 0.846 µM); against E. faecium 494 it was 1 µg/mL (≈ 1.69 µM). Moreover, the PD50 in the assay on S. pneumoniae 157E [4] (iv) is reported as 1 mg/kg; with S. pneumoniae 157E [4] (po), 13.4 mg/kg; with S. pneumoniae 700905 [5] (iv) it was 2.2 mg/kg; in the assay with S. pneumoniae 700905 [5] (po), 31.6 mg/kg. Besides, the “oral activity in words” value in the assay on S. pneumoniae 157E [4] (po) was “exhibited oral activity”.
Regarding `CN(C)[C@@H]1C(O)=C(C(N)=O)C(=O)[C@@]2(O)C(O)=C3C(=O)c4c(O)ccc(B5OC(C)(C)C(C)(C)O5)c4C[C@H]3C[C@@H]12` [F], the MIC was determined as 0.5 µg/mL (≈ 0.925 µM) with S. aureus MRSA5, 0.5 µg/mL (≈ 0.925 µM) against E. faecalis 29212, 0.25 µg/mL (≈ 0.463 µM) in the assay on S. pneumoniae 700905 [3] and 1 µg/mL (≈ 1.85 µM) against E. faecium 494. Besides, in the assay on S. pneumoniae 157E [6] (po), the responders at 50 mg/kg is 100%. Besides, the responders at 5 mg/kg in the assay with S. pneumoniae 157E [6] was determined as 100%.
Take `CN(CCCc1cc(N(C)C)c2c(c1O)C(=O)C1=C(O)[C@]3(O)C(=O)C(C(N)=O)=C(O)[C@@H](N(C)C)[C@@H]3C[C@@H]1C2)Cc1ccccc1` [AK]: the MIC against S. aureus MRSA5 amounted to 2 µg/mL (≈ 3.23 µM); in the assay on S. aureus RN450, 1 µg/mL (≈ 1.62 µM); against S. pneumoniae 157E [7], 0.5 µg/mL (≈ 0.808 µM); in the assay with S. pneumoniae 700905 [3], 0.5 µg/mL (≈ 0.808 µM).
As for `CC1CN(C2CCN(Cc3cc(N(C)C)c4c(c3O)C(=O)C3=C(O)[C@]5(O)C(=O)C(C(N)=O)=C(O)[C@@H](N(C)C)[C@@H]5C[C@@H]3C4)CC2)CC(C)O1` (stereo partly drawn) [Compound R], the MIC against S. aureus MRSA5 stood at 1 µg/mL (≈ 1.5 µM); against E. faecalis 29212, 2 µg/mL (≈ 2.99 µM); against S. pneumoniae 700905 [3], 0.13 µg/mL (≈ 0.195 µM); against E. faecium 494, 1 µg/mL (≈ 1.5 µM).
For the compound `CN(C)[C@@H]1C(O)=C(C(N)=O)C(=O)[C@@]2(O)C(O)=C3C(=O)c4c(O)ccc(-c5cncc(CN6CCCCC6)c5)c4C[C@H]3C[C@@H]12` [P], the MIC against S. aureus RN450 and with S. aureus RN4250 was 0.06 µg/mL (≈ 0.102 µM) throughout.
In the case of `COCCOC(=O)Nc1ccc(-c2ccc(O)c3c2C[C@H]2C[C@H]4[C@H](N(C)C)C(O)=C(C(N)=O)C(=O)[C@@]4(O)C(O)=C2C3=O)cc1` [AD], the MIC against S. aureus MRSA5 turned out to be 1 µg/mL (≈ 1.65 µM); in the assay with S. aureus RN450 it was 0.06 µg/mL (≈ 0.0987 µM); against S. pneumoniae 157E [7], 0.13 µg/mL (≈ 0.214 µM); against S. pneumoniae 700905 [3] it was 0.5 µg/mL (≈ 0.823 µM).
For the compound `CN(C)[C@@H]1C(O)=C(C(N)=O)C(=O)[C@@]2(O)C(O)=C3C(=O)c4c(O)ccc(C(=O)CN5CCCCC5)c4C[C@H]3C[C@@H]12` [O], in assay [1], the “macromolecular synthesis profile in words” value is “profile similar to class I compounds”, the half-inhibitory concentration (IC50) is 0.33 µg/mL (≈ 0.612 µM) and the IC90 came to 0.92 µg/mL (≈ 1.71 µM). In the assay with S. aureus RN450, this compound yielded an MIC of 0.06 µg/mL (≈ 0.111 µM). Moreover, in the assay on S. aureus RN4250, the MIC came to 0.06 µg/mL (≈ 0.111 µM). In [2], the concentration for half-maximal inhibition (IC50) is above 32 µg/mL and the IC90 was above 32 µg/mL.
Turning to `C=CCN(C)Cc1cc(C(C)C)c2c(c1O)C(=O)C1=C(O)[C@]3(O)C(=O)C(C(N)=O)=C(O)[C@@H](N(C)C)[C@@H]3C[C@@H]1C2` [G], the MIC amounted to 0.5 µg/mL (≈ 0.927 µM) against S. aureus MRSA5, 0.5 µg/mL (≈ 0.927 µM) in the assay on E. faecalis 29212, 0.06 µg/mL (≈ 0.111 µM) in the assay with S. pneumoniae 700905 [3] and 1 µg/mL (≈ 1.85 µM) against E. faecium 494.
In the case of `COC(=O)c1ccc(CNCc2cc(N(C)C)c3c(c2O)C(=O)C2=C(O)[C@]4(O)C(=O)C(C(N)=O)=C(O)[C@H](N(C)C)[C@@H]4C[C@@H]2C3)cc1` [D], the MIC in the assay with S. aureus MRSA5 came out at 1 µg/mL (≈ 1.58 µM); with E. faecalis 29212, 0.25 µg/mL (≈ 0.394 µM); with S. pneumoniae 700905 [3], 0.25 µg/mL (≈ 0.394 µM); with E. faecium 494 it was 1 µg/mL (≈ 1.58 µM). In addition, the responders at 10 mg/kg in the assay with S. pneumoniae 157E [6] (po) came to 0%. Besides, in the assay with S. pneumoniae 157E [6], the responders at 5 mg/kg amounted to 0%.
For the compound `CN(Cc1ccccc1F)Cc1cc(N(C)C)c2c(c1O)C(=O)C1=C(O)[C@]3(O)C(=O)C(C(N)=O)=C(O)[C@@H](N(C)C)[C@@H]3C[C@@H]1C2` [K], the MIC against S. aureus MRSA5 is 0.5 µg/mL (≈ 0.821 µM); against E. faecalis 29212, 1 µg/mL (≈ 1.64 µM); against S. pneumoniae 700905 [3], 0.25 µg/mL (≈ 0.411 µM); in the assay with E. faecium 494 it was 1 µg/mL (≈ 1.64 µM).
